Laboratory results from publication PMC11673335, “Mannich Base Derived from Lawsone Inhibits PKM2 and Induces Neoplastic Cell Death” (Biomedicines, 2024).

Molecular target: T1, PKM2 (pyruvate kinase M2) (Homo sapiens, UniProt P14618)
T1 construct: gene PKM; recombinant human PKM2 (Sigma-Aldrich #SAE0021)
Assay: LDH-coupled PKM2 activity assay; confirmed by ATP production (CellTiter-Glo)
Assay type: biochemical

T1 sequence (P14618 2-531): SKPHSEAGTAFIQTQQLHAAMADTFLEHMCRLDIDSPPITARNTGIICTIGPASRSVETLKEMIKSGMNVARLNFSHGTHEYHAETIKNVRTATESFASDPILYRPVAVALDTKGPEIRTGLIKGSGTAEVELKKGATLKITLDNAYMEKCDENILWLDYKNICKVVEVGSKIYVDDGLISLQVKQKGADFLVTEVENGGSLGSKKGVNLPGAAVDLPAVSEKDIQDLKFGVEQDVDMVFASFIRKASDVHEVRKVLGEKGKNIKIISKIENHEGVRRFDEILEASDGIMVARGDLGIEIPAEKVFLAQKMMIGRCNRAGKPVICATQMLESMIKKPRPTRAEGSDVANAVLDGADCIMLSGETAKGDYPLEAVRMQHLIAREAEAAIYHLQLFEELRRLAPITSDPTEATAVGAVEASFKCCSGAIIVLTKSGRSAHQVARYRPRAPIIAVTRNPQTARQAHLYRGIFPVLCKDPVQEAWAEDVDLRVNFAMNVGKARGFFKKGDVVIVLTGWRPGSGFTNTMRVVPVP

methyl benzyl((4-chlorophenyl)(3-((methoxycarbonyl)oxy)-1,4-dioxo-1,4-dihydronaphthalen-2-yl)methyl)carbamate [MB-6a]
IC50: 1040 nM
